The values below come from patent publication US20180305332A1, “Bispiperidinyl Derivatives as Liver X Receptor Beta Agonists, Compositions, and Their Use” (Merck Sharp & Dohme Corp., priority 2015, published 2018).

The target in assay [1] is T1, GST tagged LXRbeta LBD (ligand binding domain) (Homo sapiens, UniProt P55055).
T1 construct: purchased Invitrogen pv4658.pps
T1 sequence (P55055 222-460 limits assumed): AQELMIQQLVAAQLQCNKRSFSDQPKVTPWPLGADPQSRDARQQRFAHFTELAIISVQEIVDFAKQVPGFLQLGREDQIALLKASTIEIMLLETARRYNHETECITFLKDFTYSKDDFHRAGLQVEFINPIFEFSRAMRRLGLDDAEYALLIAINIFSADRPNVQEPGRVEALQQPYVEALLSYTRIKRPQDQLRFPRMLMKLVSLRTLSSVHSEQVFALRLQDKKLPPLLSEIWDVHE
In words: LanthaScreen TR-FRET Liver X Receptor Coactivator Assay, LXR beta-LBD. The format is biochemical. As to conditions: relative to reference T0901317; for EC50: Inflection Point (potency), co-activator recruitment, read-out: LXR beta IP; for Emax: activity at max dose (efficacy), read-out: LXR beta act @ max dose (%). Put shortly: (§1)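 LXR LBD protein mixed with test compound, then fluorescein-labelled coactivator peptide plus terbium anti-GST antibody added; after room-temperature incubation, TR-FRET read. Inflection point and Emax derived from coactivator recruitment relative to reference dual agonist T0901317.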
A general note: In TR-FRET formats the signal depends on donor and acceptor labels being close together.

Assay [2] addresses T2, GST tagged LXRalpha LBD (ligand binding domain) (Homo sapiens, UniProt Q13133).
T2 construct: purchased Invitrogen pv4655
T2 sequence (Q13133 209-447 limits assumed): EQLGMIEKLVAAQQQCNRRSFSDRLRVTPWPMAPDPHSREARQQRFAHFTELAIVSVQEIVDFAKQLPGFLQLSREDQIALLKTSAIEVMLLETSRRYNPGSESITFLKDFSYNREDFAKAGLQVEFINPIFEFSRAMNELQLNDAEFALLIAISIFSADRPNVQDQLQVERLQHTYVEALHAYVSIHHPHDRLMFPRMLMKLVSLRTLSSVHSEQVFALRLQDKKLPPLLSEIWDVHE
The experiment in a line: LanthaScreen TR-FRET Liver X Receptor Coactivator Assay, LXR alpha-LBD. As to conditions: relative to reference T0901317; for EC50 / LXR alpha IP (nM): Inflection Point (potency), co-activator recruitment; for EC50: read-out: LXR alpha IP; for Emax: activity at max dose (efficacy), read-out: LXR alpha act @ max dose (%). It counts as biochemical. The essentials: as §1

As to `O=C(c1c(F)cccc1F)N1CCC(C2CCN(c3ccc(C(=O)N4CCCC4C(F)(F)F)c(Cl)c3)CC2)CC1` (stereo not drawn) [Example E-13, 1-(3-chloro-4-{[2-(trifluoromethyl)pyrrolidin-1-yl]carbonyl}phenyl)-1′-[(2,6-difluorophenyl)carbonyl]-4,4′-bipiperidine], the EC50 in assay [1] turned out to be 473 nM; in assay [2], 2150 nM. The results for the Emax in assay [1] and in assay [2] were 46% and 15%, respectively.
Turning to `CCN(CC)C(=O)c1ccc(N2CCC(C3CCN(C(=O)c4c(F)cccc4F)CC3)CC2)cc1Cl` [Example E-14, 2-chloro-4-{1′-[(2,6-difluorophenyl)carbonyl]-4,4′-bipiperidin-1-yl}-N,N-diethylbenzamide], in assay [1], the EC50 was 289 nM and the Emax amounted to 78%. Moreover, in assay [2], the EC50 turned out to be 1890 nM and the Emax was determined as 30%.
As for `CN(CC1CC1(C)C)C(=O)c1ccc(N2CCC(C3CCN(C(=O)c4c(F)cccc4F)CC3)CC2)cc1Cl` (stereo not drawn) [Example E-15, 2-chloro-4-{1′-[(2,6-difluorophenyl)carbonyl]-4,4′-bipiperidin-1-yl}-N-[(2,2-dimethylcyclopropyl)methyl]-N-methylbenzamide], in assay [1], the EC50 was found to be 283 nM and the Emax was 54%. Further, in assay [2], the “LXR alpha IP (nM)” value is “NO IP” and the Emax is 10%.
For the compound `CN(Cc1ccon1)C(=O)c1ccc(N2CCC(C3CCN(C(=O)c4c(F)cccc4F)CC3)CC2)cc1Cl` [Example E-16, 2-chloro-4-{1′-[(2,6-difluorophenyl)carbonyl]-4,4′-bipiperidin-1-yl}-N-(isoxazol-3-ylmethyl)-N-methylbenzamide], in assay [1], the EC50 came to 137 nM and the Emax is 92%. For the same compound, in assay [2], the EC50 was determined as 1700 nM and the Emax was determined as 38%.
Taken in the same sequence, the figures for `O=C(c1ccc(N2CCC(C3CCN(C(=O)[C@](O)(c4ccccc4)C(F)(F)C(F)(F)F)CC3)CC2)cc1Cl)N1CCCC1` [Example E-17] were 105 nM, 130%, 760 nM and 33%.
Turning to `CC(C)(C(=O)N1CCC(C2CCN(c3ccc(C(=O)N4CCCC4)c(Cl)c3)CC2)CC1)c1ccccc1` [Example E-18, 1-[3-chloro-4-(pyrrolidin-1-ylcarbonyl)phenyl]-1′-(2-methyl-2-phenylpropanoyl)-4,4′-bipiperidine], in assay [1], the EC50 was determined as 73 nM and the Emax was 99%. In assay [2], the EC50 was 1280 nM and the Emax came to 52%.
Turning to `O=C(c1ccc(N2CCC(C3CCN(C(=O)[C@](O)(c4ccccc4)C(F)(F)F)CC3)CC2)cc1Cl)N1CCCC1` [Example E-20], in assay [1], the EC50 was determined as 197 nM and the Emax worked out at 78%. Also, in assay [2], the “LXR alpha IP (nM)” value is listed as “NO IP” and the Emax was determined as 25%.
Taken in the same sequence, the figures for `O=C(c1ccc(N2CCC(C3CCN(C(=O)[C@](O)(c4ccccc4)C(F)(F)F)CC3)CC2)cc1Cl)N1CCCC1C(F)(F)F` (stereo partly drawn) [Example E-21, (2R)-3-[1′-(3-chloro-4-{[2-(trifluoromethyl)pyrrolidin-1-yl]carbonyl}phenyl)-4,4′-bipiperidin-1-yl]-1,1,1-trifluoro-3-oxo-2-phenylpropan-2-ol] were 95 nM, 62%, “NO IP” and 13%.
`COC(=O)[C@@H]1CCCN1C(=O)c1ccc(N2CCC(C3CCN(C(=O)[C@](O)(c4ccccc4)C(F)(F)F)CC3)CC2)cc1Cl` [Example E-22, methyl 1-[(2-chloro-4-{1′-[(2R)-3,3,3-trifluoro-2-hydroxy-2-phenylpropanoyl]-4,4′-bipiperidin-1-yl}phenyl)carbonyl]prolinate]: in assay [1], the EC50 came to 437 nM and the Emax was found to be 81%. Further, in assay [2], the EC50 amounted to 1670 nM and the Emax came out at 18%.
